Test: xn = mol fraction of the nth substance listed

COc1ccc(C=O)cc1 + CCCCOCCO
viscosity [mPa·s], 101 kPa
Conditions	x1 = 0.1088	x1 = 0.2154	x1 = 0.3201	x1 = 0.4227	x1 = 0.5234	x1 = 0.6223	x1 = 0.7193	x1 = 0.8146	x1 = 0.9081
303.15 K	2.197	2.089	2.055	2.09	2.191	2.354	2.575	2.852	3.18
308.15 K	2.107	2.006	1.963	1.973	2.035	2.145	2.3	2.499	2.738
313.15 K	1.984	1.912	1.881	1.888	1.932	2.01	2.121	2.262	2.432
318.15 K	1.836	1.786	1.766	1.773	1.806	1.865	1.947	2.051	2.175

CCCCCCCCn1cc[n+](C)c1.[Cl-] + CCCO
viscosity [mPa·s], 101 kPa
Conditions	x2 = 0.1071	x2 = 0.2407	x2 = 0.3036	x2 = 0.4887
298.15 K	7238	–	912	178.5
313.15 K	–	649	334.5	–

CCOC(C)=O + CCCO
viscosity [mPa·s], 101 kPa
Conditions	298.15 K	313.15 K
x1 = 0.046	1.597	1.158
x1 = 0.0998	1.337	0.987
x1 = 0.1992	1.007	–
x1 = 0.2966	0.802	–
x1 = 0.4052	0.694	–
x1 = 0.5009	0.601	–
x1 = 0.5421	0.576	0.482
x1 = 0.5948	0.558	0.466
x1 = 0.7034	0.509	–
x1 = 0.7964	0.475	–
x1 = 0.9033	0.448	–
x1 = 0.9542	0.45	–

COC(=O)CC(C)=O + CCCO
viscosity [mPa·s], 101.3 kPa
Conditions	x1 = 0.1028	x1 = 0.2021	x1 = 0.3067	x1 = 0.407	x1 = 0.5069	x1 = 0.609	x1 = 0.7057	x1 = 0.8054	x1 = 0.9036
298.15 K	1.497	1.333	1.253	1.221	1.219	1.238	1.278	1.339	1.501
303.15 K	1.337	1.213	1.128	1.102	1.104	1.123	1.163	1.217	1.295
308.15 K	1.198	1.096	1.024	1.003	1.007	1.027	1.062	1.114	1.183

CS(=O)(=O)[O-].C[N+](C)(CCO)CCO + CCCO
Conditions	viscosity [mPa·s]
298.15 K, 101.33 kPa, x1 = 0.8978	965

Clc1cccc(Cl)c1 + CCNc1ccccc1
viscosity [mPa·s], 101 kPa
Conditions	303.15 K	308.15 K
x2 = 0.0725	1.021	0.954
x2 = 0.1256	1.069	0.996
x2 = 0.1956	1.134	1.051
x2 = 0.2687	1.2	1.108
x2 = 0.3369	1.258	1.157
x2 = 0.4056	1.315	1.205
x2 = 0.4856	1.38	1.259
x2 = 0.5598	1.437	1.308
x2 = 0.6235	1.485	1.347
x2 = 0.6925	1.536	1.389
x2 = 0.7759	1.594	1.436
x2 = 0.8596	1.651	1.482
x2 = 0.9125	1.687	1.511

CCCCCCCCn1cc[n+](C)c1.[Cl-] + CCO
Conditions	viscosity [mPa·s]
298.15 K, 101 kPa, x2 = 0.1305	5426

CCOc1ccccc1 + CCO
298.15 K, 101 kPa
Conditions	viscosity [mPa·s]
x2 = 0.3183	1.067
x2 = 0.5186	1.035
x2 = 0.6605	1.01
x2 = 0.764	0.997
x2 = 0.8437	0.991
x2 = 0.9064	1
x2 = 0.9609	1.035

COC(=O)CC(C)=O + CCO
viscosity [mPa·s], 101.3 kPa
Conditions	x1 = 0.1051	x1 = 0.204	x1 = 0.3085	x1 = 0.4046	x1 = 0.507	x1 = 0.607	x1 = 0.7033	x1 = 0.8022	x1 = 0.902
298.15 K	0.96	0.942	0.965	0.995	1.057	1.121	1.202	1.3	1.422
303.15 K	0.879	0.866	0.883	0.913	0.968	1.027	1.099	1.187	1.294
308.15 K	0.806	0.798	0.814	0.841	0.892	0.946	1.011	1.092	1.186

CS(=O)(=O)[O-].C[N+](C)(CCO)CCO + CCO
Conditions	viscosity [mPa·s]
298.15 K, 101.33 kPa, x1 = 0.8954	947.5

OCC(O)CO + CCO
298.15 K, 101 kPa
Conditions	viscosity [mPa·s]
x1 = 0.053	1.52
x1 = 0.11	2.23
x1 = 0.18	3.49
x1 = 0.25	5.83
x1 = 0.33	10.4
x1 = 0.43	20.6
x1 = 0.54	45.3
x1 = 0.67	103.3
x1 = 0.82	254

COC(=O)CC(C)=O + CCOC(=O)c1ccccc1
viscosity [mPa·s], 101.33 kPa
Conditions	x1 = 0.0992	x1 = 0.2023	x1 = 0.3004	x1 = 0.399	x1 = 0.4991	x1 = 0.5978	x1 = 0.6966	x1 = 0.7979	x1 = 0.8986
298.15 K	1.834	1.796	1.757	1.729	1.7	1.653	1.633	1.598	1.583
303.15 K	1.661	1.627	1.593	1.571	1.543	1.501	1.484	1.452	1.44
308.15 K	1.514	1.484	1.453	1.434	1.408	1.373	1.356	1.328	1.316

COC(=O)CC(C)=O + CCOC(C)=O
viscosity [mPa·s], 101.33 kPa
Conditions	x1 = 0.0001	x1 = 0.1006	x1 = 0.1979	x1 = 0.2962	x1 = 0.3988	x1 = 0.4978	x1 = 0.5934	x1 = 0.6964	x1 = 0.7983	x1 = 0.9006
298.15 K	0.433	0.488	0.551	0.624	0.711	0.81	0.916	1.051	1.195	1.376
303.15 K	–	0.462	0.519	0.587	0.666	0.755	0.849	0.97	1.099	1.258
308.15 K	–	0.438	0.491	0.553	0.629	0.706	0.792	0.9	1.015	1.155

CCOc1ccccc1 + CCOCC
298.15 K, 101 kPa
Conditions	viscosity [mPa·s]
x2 = 0.0745	1.027
x2 = 0.0975	0.9993
x2 = 0.1855	0.8671
x2 = 0.2523	0.7856
x2 = 0.3026	0.7152
x2 = 0.3516	0.6667
x2 = 0.4501	0.5713
x2 = 0.5106	0.5154
x2 = 0.5579	0.4809
x2 = 0.6048	0.4406
x2 = 0.6882	0.3866
x2 = 0.7485	0.3494
x2 = 0.8303	0.3057
x2 = 0.9004	0.2674

COc1ccc(C=O)cc1 + CCOCCO
viscosity [mPa·s], 101 kPa
Conditions	x1 = 0.0825	x1 = 0.1683	x1 = 0.2576	x1 = 0.3506	x1 = 0.4474	x1 = 0.5484	x1 = 0.6539	x1 = 0.7641	x1 = 0.8793
303.15 K	1.521	1.534	1.586	1.682	1.828	2.03	2.294	2.629	3.044
308.15 K	1.459	1.483	1.535	1.618	1.735	1.891	2.09	2.338	2.641
313.15 K	1.33	1.371	1.431	1.512	1.617	1.749	1.912	2.108	2.342
318.15 K	1.251	1.294	1.351	1.423	1.513	1.623	1.755	1.911	2.096

CCCCCCCCn1cc[n+](C)c1.[Cl-] + CN1CCCC1=O
100 kPa
Conditions	viscosity [mPa·s]
293.15 K, x1 = 0.2805	26.15
308.15 K, x1 = 0.3657	33.55
308.15 K, x1 = 0.4679	67.15
318.15 K, x1 = 0.4679	43.25

CCOc1ccccc1 + CN1CCCC1=O
viscosity [mPa·s], 101.33 kPa
Conditions	x1 = 0.041	x1 = 0.122	x1 = 0.201	x1 = 0.273	x1 = 0.37	x1 = 0.504	x1 = 0.628	x1 = 0.709	x1 = 0.822
298 K	1.667	1.648	1.622	1.594	1.551	1.481	1.408	1.36	1.285
303 K	1.541	1.518	1.49	1.461	1.418	1.353	1.286	1.242	1.175
308 K	1.432	1.406	1.377	1.348	1.307	1.244	1.183	1.141	1.08

OCC(O)CO + CN1CCCC1=O
101 kPa
Conditions	viscosity [mPa·s]
298 K, x2 = 0.078	418.4
298 K, x2 = 0.16	269.4
298 K, x2 = 0.338	72.84
298 K, x2 = 0.433	38.94
298 K, x2 = 0.534	20.42
298 K, x2 = 0.641	11.12
298 K, x2 = 0.754	4.23
298 K, x2 = 0.873	2.44
303 K, x2 = 0.078	289.9
303 K, x2 = 0.16	160.5
303 K, x2 = 0.336	55.93
303 K, x2 = 0.432	30.16
303 K, x2 = 0.533	17.83
303 K, x2 = 0.64	9.48
303 K, x2 = 0.753	3.75
303 K, x2 = 0.872	2.26
308 K, x2 = 0.077	211.3
308 K, x2 = 0.159	118.3
308 K, x2 = 0.335	43.4
308 K, x2 = 0.43	25.79
308 K, x2 = 0.531	15.16
308 K, x2 = 0.638	7.7
308 K, x2 = 0.751	3.27
308 K, x2 = 0.872	2.02
313 K, x2 = 0.077	143.4
313 K, x2 = 0.158	87.14
313 K, x2 = 0.334	35.17
313 K, x2 = 0.43	20.73
313 K, x2 = 0.53	10.45
313 K, x2 = 0.637	6.13
313 K, x2 = 0.751	2.91
313 K, x2 = 0.871	1.88
318 K, x2 = 0.077	106.1
318 K, x2 = 0.158	54.08
318 K, x2 = 0.334	25
318 K, x2 = 0.429	16.1
318 K, x2 = 0.53	9.03
318 K, x2 = 0.637	5.17
318 K, x2 = 0.75	2.68
318 K, x2 = 0.871	1.72
323 K, x2 = 0.077	83.45
323 K, x2 = 0.158	50.16
323 K, x2 = 0.334	21.33
323 K, x2 = 0.429	13.43
323 K, x2 = 0.53	7.11
323 K, x2 = 0.637	4.64
323 K, x2 = 0.75	2.46
323 K, x2 = 0.871	1.6

From the CheMixHub viscosity set
